According to US20100316678A1, “COMBINATION METHODS AND COMPOSITIONS FOR TREATMENT OF NEUROPATHIC PAIN” (CNSBio Pty Ltd., priority 2007, published 2010):
Marks after values point to notes of the source that are not given here.

Tests used:
Assay type in all cases: in vivo, male Wistar rats
[1] = Open field activity monitor, test for sedation in normal rats; conditions: for largest non-sedating dose: intraperitoneally, rats; for open field activity monitor, mean: male, Wistar, rat, in vivo, ip, 20 min
Experimental: (§1) Experiments were performed on male Wistar rats (wt 150-220g). Two series of experiments were performed in an observer blinded fashion with saline (negative) controls and GABAPentin (positive) controls. The investigations were in two stages: • 1. a range of doses of aprepitant (an example of a NK antagonist) given alone and in combination with flupirtine (an example of an inhibitor of neuronal excitation) were tested for sedating effects using the open field activity monitor.
Individual rats (several rats per treatment group) were placed in an open field activity monitor in which the movement of the rat could be monitored remotely by the frequency and number of interruption of infrared beams directed across the box in a grid. The activity in the monitor was measured for periods of 20 minutes in each rat. This was performed in groups of rats that received (1) control injection of saline, (2) GABAPentin 50 mg/kg as the maximum dose of that drug found previously not to be sedating (drug positive control) administered intraperitoneally, or (3) after pharmacological interventions that involve the administration of aprepitant and flupirtine given at a range of doses alone and in combination. If a rat was sedated by a drug or drug combination, the movements recorded were less. Since rats become habituated to the open field monitor, only one experiment was performed on each rat with this test.
These were the upper dose limits for subsequent experiments investigating the analgesic effects of these drugs administered together in combinations.

[2] = test system: streptozotocin-induced diabetic neuropathy; assay: Reversal of heat hyperalgesia (paw flick, Hargreaves) in streptozotocin-induced diabetic neuropathy
Experimental: Male Wistar rats (wt 50-70 g) were given streptozotocin 150 mg/kg intraperitoneally. […] The largest non-sedating doses of GABAPentin (50 mg/kg intraperitoneally) and aprepitant (6.25 mg/kg intraperitoneally) were assessed for possible analgesic effect by measurement of the percentage reversal of the hyperalgesia caused by the diabetes assessed by withdrawal from noxious heat applied to the hind paw.
Experiments were performed in an observer blinded fashion with parallel saline treated controls:

[3] = test system: streptozotocin-induced diabetic neuropathy; assay: Reversal of allodynia (von Frey hair) in streptozotocin-induced diabetic neuropathy; conditions: each drug alone at non sedating doses, intraperitoneal
Experimental: as §1
Rats were injected intraperitoneally with streptozotocin (150 mg per kg total dose—Sapphire Bioscience) dissolved in sodium chloride 0.9%. The induction of diabetes was confirmed one week after injection of streptozotocin and weekly thereafter by measurement of tail vein blood glucose levels with Ames Glucofilm test strips and Ames Glucometer blood glucose meter. Only animals with blood glucose levels greater than or equal to 15 mM and maintained continuously for 5 weeks were deemed to be diabetic. […] At the end of five weeks these rats were assessed with the methods of measuring hyperalgesia (paw flick—Hargreaves method) and allodynia (withdrawal from von Frey Hair stimulation at normally non noxious intensity) to elucidate the antinociceptive effects of flupirtine and aprepitant given intraperitoneally alone and in combination (with saline and GABApentin for comparison).

SMILES | largest non-sedating dose [1] | reversal of hyperalgesia (statistics) ([2]; GABAPentin 50 mg/kg alone vs saline, P<0.01) | percentage reversal of the hyperalgesia, mean ([2]; GABAPentin 50 mg/kg intraperitoneally alone, noxious heat to hind paw, n=17) | open field activity monitor, mean ([1]; 6.25 mg/kg) | open field activity monitor, mean ([1]; 12.5 mg/kg) | open field activity monitor, mean ([1]; 25 mg/kg) | open field activity monitor, mean ([1]; 50 mg/kg) | open field activity monitor, mean ([1]; 100 mg/kg) | antinociception with respect to allodynia [3]
NCC1(CC(=O)O)CCCCC1 [GABAPentin] | 50 mg/kg | statistically significant reversal of hyperalgesia | 27.67 |  |  |  |  |  | 
C[C@@H](O[C@H]1OCCN(Cc2n[nH]c(=O)[nH]2)[C@H]1c1ccc(F)cc1)c1cc(C(F)(F)F)cc(C(F)(F)F)c1 [aprepitant] | 6.25 mg/kg |  |  | 869.0 | 915.0* | 964.6* | 976.6* | 1058.2 | Neither drug at non sedating doses causes significant antinociception
